According to US9233108B2 (ALMIRALL, S.A., priority 2011, dated 2016):

Legend:
[1] = biological target: human muscarinic M3 receptors (Homo sapiens (Human), UniProt P20309); test: Human muscarinic M3 receptor binding assay; details: CHO-K1 cell membranes, [3H]-NMS radioligand
Procedure: Test 2: Human Muscarinic M1, M2, M3, M4 and M5 receptors binding assays
The study of binding to human muscarinic M1, M2, M3, M4 and M5 receptors was performed using commercial membranes (Perkin Elmer) prepared from CHO-K1 cells. Radioligand binding experiments were conducted in 96 polypropylene well plates in a total volume of 200 μl. All reagents were dissolved in assay binding buffer (PBS with calcium and magnesium, SIGMA), except compounds that were dissolved in DMSO 100%. Non-specific binding (NSB) was measured in the presence of 1 μM atropine. [3H]-NMS was used as the radioligand at a concentration of 1 nM for M2, M3 and M5 and 0.3 nM for M1 and M4. [3H]-NMS and antagonists were incubated with membranes that express human muscarinic receptors M1, M2, M3, M4 and M5 at concentrations of 8.1, 10, 4.9, 4.5 and 4.9 μg/well, respectively.
After an incubation period of two hours with gentle shaking, 150 μl of the reaction mix were transferred to 96 GF/C filter plates (Millipore), previously treated with wash buffer (Tris 50 mM; NaCl 100 mM; pH: 7.4), containing 0.05% PEI (Sigma) during one hour. Bound and free [3H]-NMS were separated by rapid vacuum filtration in a manifold from Millipore and washed four times with ice cold wash buffer. After drying 30 min, 30 μl of OPTIPHASE Supermix were added to each well and radioactivity quantified using a Microbeta microplate scintillation counter.
The affinity of each test compound to the receptors was determined by using ten different concentrations ran in duplicate. IC50s were calculated using Activity Base software from IDBS and the four parameters-log equation.

[2] = biological target: human adrenergic beta2 receptors (Homo sapiens (Human), UniProt P07550); test: Human adrenergic β2 receptor binding assay; details: Sf9 cell membranes, 3H-CGP12177 radioligand
Procedure: Test 1: Human Adrenergic β1 and β2 Receptor Binding Assays
The study of binding to human adrenergic beta1 and beta2 receptors was performed using commercial membranes prepared from Sf9 cells where they are overexpressed (Perkin Elmer). The membrane suspensions (16 μg/well for beta1 and 5 μg/well for beta2) in assay buffer (75 mM Tris/HCl with 12.5 mM MgCl2 and 2 mM EDTA pH=7.4) were incubated with 0.14 or 0.6 nM of 3H-CGP12177 (Amersham) for beta 1 and beta 2 receptors respectively in a final volume of 250 μl, in GFC Multiscreen 96 well plates (Millipore) previously treated with assay buffer containing 0.3% PEI (Sigma). Non specific binding was measured in the presence of 1 μM propanolol. Incubation was maintained for 60 minutes at room temperature and with gentle shaking. The binding reactions were terminated by filtration and washing with 2.5 volumes of Tris/HCl 50 mM pH=7.4. The affinity of each test compound to the receptor was determined by using ten different concentrations ran in duplicate. IC50s were calculated using Activity Base software from IDBS and the four parameters-log equation.

human muscarinic M3 receptors, sequence (P20309 whole entry): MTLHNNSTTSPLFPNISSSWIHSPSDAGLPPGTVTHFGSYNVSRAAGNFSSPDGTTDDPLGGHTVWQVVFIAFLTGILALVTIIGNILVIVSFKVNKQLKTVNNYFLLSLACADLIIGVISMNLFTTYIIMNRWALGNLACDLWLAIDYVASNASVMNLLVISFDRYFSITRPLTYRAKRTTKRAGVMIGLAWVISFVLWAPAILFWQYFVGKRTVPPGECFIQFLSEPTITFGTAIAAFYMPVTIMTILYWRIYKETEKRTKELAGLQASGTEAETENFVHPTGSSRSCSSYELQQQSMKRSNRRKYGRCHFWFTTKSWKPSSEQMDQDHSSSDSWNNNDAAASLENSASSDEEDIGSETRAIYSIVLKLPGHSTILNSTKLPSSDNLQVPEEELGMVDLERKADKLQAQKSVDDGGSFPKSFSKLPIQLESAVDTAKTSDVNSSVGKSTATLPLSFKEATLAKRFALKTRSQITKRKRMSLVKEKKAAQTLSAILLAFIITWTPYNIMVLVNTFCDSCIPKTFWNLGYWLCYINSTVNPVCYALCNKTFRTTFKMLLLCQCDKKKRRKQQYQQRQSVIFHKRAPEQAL

Compound | IC50 [1] [nM] | IC50 [2] [nM]
trans-4-[{3-[5-({[(2R)-2-hydroxy-2-(8-hydroxy-2-oxo-1,2-dihydroquinolin-5-yl)ethyl]amino}methyl)-2-oxo-2,3-dihydro-1H-benzimidazol-1-yl]propyl}(methyl)amino]cyclohexylhydroxy(di-2-thienyl)acetate dihydrofluoride [Example 2] | 0.4 | 120
CN(CCCn1c(=O)oc2cc(CCNC[C@H](O)c3ccc(O)c4[nH]c(=O)ccc34)ccc21)[C@H]1CC[C@H](OC(=O)C(O)(c2cccs2)c2cccs2)CC1 (relative stereo) [Example 19, trans-4-[{3-[6-(2-{[(2R)-2-hydroxy-2-(8-hydroxy-2-oxo-1,2-dihydroquinolin-5-yl)ethyl]amino}ethyl)-2-oxo-1,3-benzoxazol-3(2H)-yl]propyl}(methyl)amino]cyclohexylhydroxy(di-2-thienyl)acetate dihydrofluoride] | 0.8 | 62
COc1cc(-c2noc(CCCN(C)[C@H]3CC[C@H](OC(=O)C(O)(c4cccs4)c4cccs4)CC3)n2)c(Cl)cc1CNC[C@H](O)c1ccc(O)c2[nH]c(=O)ccc12 (relative stereo) [Example 9, trans-4-[(3-{3-[2-chloro-4-({[(2R)-2-hydroxy-2-(8-hydroxy-2-oxo-1,2-dihydroquinolin-5-yl)ethyl]amino}methyl)-5-methoxyphenyl]-1,2,4-oxadiazol-5-yl}propyl)(methyl)amino]cyclohexylhydroxy(di-2-thienyl)acetate dihydrofluoride] | 0.2 | 2.2
CC(Cc1ccc(OCC(=O)NCCN[C@H]2CC[C@H](OC(=O)C(O)(c3cccs3)c3cccs3)CC2)cc1)NC[C@H](O)c1ccc(O)c2[nH]c(=O)ccc12 (relative stereo) [Example 20] | 3.6 | 3.1
trans-4-[{3-[6-({[(2R)-2-hydroxy-2-(8-hydroxy-2-oxo-1,2-dihydroquinolin-5-yl)ethyl]amino}methyl)-2-oxo-1,3-benzothiazol-3(2H)-yl]propyl}(methyl)amino]cyclohexylhydroxy(di-2-thienyl)acetate dihydrofluoride [Example 11] | 0.5 | 4.2
trans-4-[(3-{3-[4-({[(2R)-2-hydroxy-2-(8-hydroxy-2-oxo-1,2-dihydroquinolin-5-yl)ethyl]amino}methyl)phenyl]-1,2,4-oxadiazol-5-yl}propyl)(methyl)amino]cyclohexylhydroxy(di-2-thienyl)acetate dihydrofluoride [Example 5] | 0.4 | 2.7
